Results reported in EP0187355A1, “Process for preparing beta-lactam antibiotics” (E.R. Squibb & Sons, Inc., priority 1981, dated 1982).
Counter-ions that a name gives are not always drawn. Like-named read-outs stand apart in the source and are kept apart here.

Legend:
Assay in all cases: MIC, agar dilution
Format in all cases: cell-based
Micrococcus luteus, 2495 = conditions: Micrococcus luteus, 2495, 18 h, K-10 agar, 10^4 CFU, 37°C, read-out: M.I.C.
Experimental: (§1) The following methodology is used to determine the minimum inhibitory concentration (hereinafter referred to as MIC) of the […] of this invention.
(§2) The test organisms are grown in approximately 15-20 ml of Antibiotic Assay broth (Difco) by inoculating (in tubes) the broth with a loopful of the organism from a BHI (Difco) agar slant. The inoculated tubes are incubated at 37°C for 18 to 20 hours. These cultures are assumed to contain 10^9 colony forming units (hereinafter CFU) per milliliter. The cultures are diluted 1:100 to give a final inoculum level of 10^4 CFU; dilutions are made with K-10 broth^*.
(§3) The compounds are dissolved in the appropriate diluent at a concentration of 1000 µg/ml. Twofold dilutions are made in K-10 broth resulting in a range from 1000 µg/ml to 0.5 µg/ml. 1.5 ml of each dilution is placed into individual square petri dishes to which 13.5 ml of K-10 agar^** is added. The final drug concentration in the agar ranges from 100 µg/ml to 0.05 µg/ml. Organism growth control plates containing agar only are prepared and inoculated before and after the test plates. The organisms are applied to the agar surface of each plate with the Denley Multipoint Inoculator (which delivers approximately 0.001 ml of each organism) resulting in a final inoculum level of 10^4 CFU on the agar surface.
(§4) The MIC is the lowest concentration of compound inhibiting growth of the organism.
(§5) The number following each organism refers to the number of the organism in the collection of E. R. Squibb & Sons,.Inc., Princeton, New Jersey. […] The symbol "N.T." means not tested.

[1] = test system: Streptococcus agalactiae, 9287; conditions: Streptococcus agalactiae, 9287, 18 h, K-10 agar, 10^4 CFU, 37°C, read-out: M.I.C.
Experimental: as §1, §2, §3, §4, §5

[2] = test system: Enterobacter cloacae, 8236; conditions: Enterobacter cloacae, 8236, 18 h, K-10 agar, 10^4 CFU, 37°C
Experimental: as §1, §2, §3, §4, §5

[3] = test system: Staphylococcus aureus, 1276; conditions: Staphylococcus aureus, 1276; K-10 agar, 10^4 CFU, 37°C, 18 hours; read-out: M.I.C.
Experimental: as §1, §2, §3
(§6) The plates are incubated at 37 °C for 18 hours and the MIC's are determined. The MIC is the lowest concentration of compound inhibiting growth of the organism.
as §5, with “The tables that follow are tabulated results obtained when the B-lactams of this invention are tested against various organisms. The number” for “The number”

[4] = test system: Staphylococcus aureus, 2399; conditions: Staphylococcus aureus, 2399, 18 h, Staphylococcus aureus, 2399; K-10 agar, 10^4 CFU, 37°C, 18 hours; read-out: M.I.C.
Experimental: as §1, §2, §3, §6
as §5, with “The tables that follow are tabulated results obtained when the B-lactams of this invention are tested against various organisms. The number” for “The number”

Escherichia coli, 10909 = conditions: K-10 agar, 10^4 CFU, 37°C, 18 hours
Experimental: as §1, §2, §3, §6
as §5, with “The tables that follow are tabulated results obtained when the B-lactams of this invention are tested against various organisms. The number” for “The number”

Escherichia coli, 10896 = conditions: K-10 agar, 10^4 CFU, 37°C, 18 hours
Experimental: as §1, §2, §3, §6
as §5, with “The tables that follow are tabulated results obtained when the B-lactams of this invention are tested against various organisms. The number” for “The number”

[5] = test system: Streptococcus faecalis, 9011; conditions: Enterococcus faecalis; Streptococcus faecalis, 9011; K-10 agar, 10^4 CFU, 37°C, 18 hours; read-out: M.I.C.
Experimental: as §1, §2, §3, §6
as §5, with “The tables that follow are tabulated results obtained when the B-lactams of this invention are tested against various organisms. The number” for “The number”

[6] = test system: Staphylococcus aureus, 2400; conditions: Staphylococcus aureus, 2400; K-10 agar, 10^4 CFU, 37°C, 18 hours; read-out: M.I.C.
Experimental: as §1, §2, §3, §6
as §5, with “The tables that follow are tabulated results obtained when the B-lactams of this invention are tested against various organisms. The number” for “The number”

[7] = test system: Klebsiella pneumoniae, 9527; conditions: Klebsiella pneumoniae, 9527, 18 h, K-10 agar, 10^4 CFU, 37°C, read-out: M.I.C.
Experimental: as §1, §2, §3, §6
as §5, with “The tables that follow are tabulated results obtained when the B-lactams of this invention are tested against various organisms. The number” for “The number”

[8] = test system: Staphylococcus aureus, 10165; conditions: Staphylococcus aureus, 10165; K-10 agar, 10^4 CFU, 37°C, 18 hours; read-out: M.I.C.
Experimental: as §1, §2, §3, §6
as §5, with “The tables that follow are tabulated results obtained when the B-lactams of this invention are tested against various organisms. The number” for “The number”

Escherichia coli, 8294 = conditions: Escherichia coli, 8294, 18 h, K-10 agar, 10^4 CFU, 37°C
Experimental: as §1, §2, §3, §6
as §5, with “The tables that follow are tabulated results obtained when the B-lactams of this invention are tested against various organisms. The number” for “The number”

[9] = test system: Klebsiella aerogenes, 10440; conditions: K-10 agar, 10^4 CFU, 37°C, 18 hours, read-out: M.I.C.
Experimental: as §1, §2, §3, §6
as §5, with “The tables that follow are tabulated results obtained when the B-lactams of this invention are tested against various organisms. The number” for “The number”

[10] = test system: Acinetobacter calcoaceticus, 8333; conditions: Acinetobacter calcoaceticus, 8333, 18 h, K-10 agar, 10^4 CFU, 37°C, read-out: M.I.C.
Experimental: as §1, §2, §3, §6
as §5, with “The tables that follow are tabulated results obtained when the B-lactams of this invention are tested against various organisms. The number” for “The number”

Salmonella typhosa, 1195 = conditions: Salmonella enterica, TYPHOSA, 18 h, K-10 agar, 10^4 CFU, 37°C
Experimental: as §1, §2, §3, §6
as §5, with “The tables that follow are tabulated results obtained when the B-lactams of this invention are tested against various organisms. The number” for “The number”

[11] = test system: Serratia marcescens, 9783; conditions: Serratia marcescens, 9783, 18 h, K-10 agar, 10^4 CFU, 37°C, read-out: M.I.C.
Experimental: as §1, §2, §3, §6
as §5, with “The tables that follow are tabulated results obtained when the B-lactams of this invention are tested against various organisms. The number” for “The number”

Proteus rettgeri, 8479 = conditions: Providencia rettgeri, K-10 agar, 10^4 CFU, 37°C, 18 hours, read-out: M.I.C.
Experimental: as §1, §2, §3, §6
as §5, with “The tables that follow are tabulated results obtained when the B-lactams of this invention are tested against various organisms. The number” for “The number”

[12] = test system: Enterobacter aerogenes, 10078; conditions: Klebsiella aerogenes, 10078, 18 h, Enterobacter aerogenes, 10078; K-10 agar, 10^4 CFU, 37°C, 18 hours; read-out: M.I.C.
Experimental: as §1, §2, §3, §6
as §5, with “The tables that follow are tabulated results obtained when the B-lactams of this invention are tested against various organisms. The number” for “The number”

[13] = test system: Pseudomonas aeruginosa, 9545; conditions: Pseudomonas aeruginosa, 9545, 18 h, K-10 agar, 10^4 CFU, 37°C, read-out: M.I.C.
Experimental: as §1, §2, §3, §6
as §5, with “The tables that follow are tabulated results obtained when the B-lactams of this invention are tested against various organisms. The number” for “The number”

Proteus mirabilis, 3855 = conditions: Proteus mirabilis, 3855, 18 h, K-10 agar, 10^4 CFU, 37°C
Experimental: as §1, §2, §3, §6
as §5, with “The tables that follow are tabulated results obtained when the B-lactams of this invention are tested against various organisms. The number” for “The number”

Escherichia coli, 10857 = conditions: Escherichia coli, 10857, 18 h, K-10 agar, 10^4 CFU, 37°C
Experimental: as §1, §2, §3, §6
as §5, with “The tables that follow are tabulated results obtained when the B-lactams of this invention are tested against various organisms. The number” for “The number”

[14] = test system: Pseudomonas aeruginosa, 8329; conditions: K-10 agar, 10^4 CFU, 37°C, 18 hours, read-out: M.I.C.
Experimental: as §1, §2, §3, §6
as §5, with “The tables that follow are tabulated results obtained when the B-lactams of this invention are tested against various organisms. The number” for “The number”

[15] = test system: Citrobacter freundii, 9518; conditions: K-10 agar, 10^4 CFU, 37°C, 18 hours, read-out: M.I.C.
Experimental: as §1, §2, §3, §6
as §5, with “The tables that follow are tabulated results obtained when the B-lactams of this invention are tested against various organisms. The number” for “The number”

Shigella sonnei, 8449 = conditions: Shigella sonnei, 8449, 18 h, K-10 agar, 10^4 CFU, 37°C
Experimental: as §1, §2, §3, §6
as §5, with “The tables that follow are tabulated results obtained when the B-lactams of this invention are tested against various organisms. The number” for “The number”

Proteus vulgaris, 9416 = conditions: K-10 agar, 10^4 CFU, 37°C
Experimental: as §1, §2, §3, §6
as §5, with “The tables that follow are tabulated results obtained when the B-lactams of this invention are tested against various organisms. The number” for “The number”

Structure (SMILES)	MIC (Micrococcus luteus, 2495) [µg/mL]	MIC [1] [µg/mL]	MIC [2] [µg/mL]	MIC [3] [µg/mL]	MIC [4] [µg/mL]	MIC (Escherichia coli, 10909) [µg/mL]	MIC (Escherichia coli, 10896) [µg/mL]	MIC [5] [µg/mL]	MIC [6] [µg/mL]	MIC [7] [µg/mL]	MIC [8] [µg/mL]	MIC (Escherichia coli, 8294) [µg/mL]	MIC [9] [µg/mL]	MIC [10] [µg/mL]	MIC (Salmonella typhosa, 1195) [µg/mL]	MIC [11] [µg/mL]	MIC (Proteus rettgeri, 8479) [µg/mL]	MIC [12] [µg/mL]	MIC [13] [µg/mL]	MIC (Escherichia coli, 10857) [µg/mL]	other results
CO/N=C(\C(=O)NC1C(=O)N(S(=O)(=O)O)C1(C)C)c1csc(N)n1 (racemic) [Example 25, [3±(Z)]-3-[[(2-Amino-4-thiazolyl) (methoxyimino)-acet^yl]amino]-4,4-dimethyl-2-oxo-1-azetidinesulfonic acid, potassium salt]	> 100	> 100	100	> 100	> 100	25	25	> 100	> 100	6.3	> 100	50	100	> 100	12.5	100	0.8	100	> 100	6.3	MIC (Proteus mirabilis, 3855): 12.5 µg/mL; MIC [14]: > 100 µg/mL; MIC [15]: 25 µg/mL; MIC (Shigella sonnei, 8449): 25 µg/mL; MIC (Proteus vulgaris, 9416; Proteus vulgaris, 9416, 18 h): 12.5 µg/mL
CC1(C)C(NC(=O)Cc2ccccc2)C(=O)N1S(=O)(=O)O (racemic) [Example 26, (±)-4,4-Dimethyl-2-oxo-3-[(phenylacetyl)amino]-1-azetidinesulfonic acid, potassium salt]	> 100	> 100	> 100	> 100	> 100	> 100	> 100	> 100	> 100	> 100	> 100	> 100	> 100	> 100	> 100	> 100	100	> 100	> 100	50	MIC (Proteus mirabilis, 3855; read-out: M.I.C.): > 100 µg/mL; MIC [14]: > 100 µg/mL; MIC [15]: > 100 µg/mL; MIC (Shigella sonnei, 8449): > 100 µg/mL; MIC (Proteus vulgaris, 9416; 18 hours, read-out: M.I.C.): 100 µg/mL
C[C@@H]1[C@H](NC(=O)[C@H](NC(=O)N2CCN(NC(=O)OCc3ccccc3)C(=O)C2=O)c2ccccc2)C(=O)N1S(=O)(=O)O (relative stereo) [Example 20, [3S-[3α(R*),4α]]-[4-[[[2-[(4-methyl-2-oxo-1-sulfo-3-azetidinyl)amino]-2-oxo-1-phenylethyl]amino]carbonyl]-2,3-dioxo-1-piperazinyl]carbamic acid, phenylmethyl ester, potassium salt]	3.1	3.1	1.6	6.3	6.3	0.4	0.8	> 100	25	0.4	> 100	3.1	12.5	50	1.6	3.1	1.6	6.3	3.1	< 0.05	MIC (Proteus mirabilis, 3855; read-out: M.I.C.): 1.6 µg/mL; MIC [14]: 100 µg/mL; MIC [15]: 3.1 µg/mL; MIC (Shigella sonnei, 8449): 1.6 µg/mL; MIC (Proteus vulgaris, 9416; 18 hours, read-out: M.I.C.): < 0.05 µg/mL
C[C@@H]1[C@H](NC(=O)[C@H](NC(=O)N2CCN(N=Cc3ccco3)C2=O)c2ccccc2)C(=O)N1S(=O)(=O)O (relative stereo) [Example 21, [3S-[3α(R*),4α]]-3-[[[[[3-[(2-furanylmethylene)-amino]-2-oxo-1-imidazolidinyl]carbonyl]-amino]phenylacetyl]amino]-4-methyl-2-oxo-1-azetidinesulfonic acid, potassium salt]	3.1	0.4	1.6	3.1	3.1	0.2	0.4	> 100	6.3	0.2	100	1.6	1.6	50	0.4	3.1	1.6	3.1	12.5	< 0.05	MIC (Proteus mirabilis, 3855; read-out: M.I.C.): 0.8 µg/mL; MIC [14]: 12.5 µg/mL; MIC [15]: 1.6 µg/mL; MIC (Shigella sonnei, 8449): 0.8 µg/mL; MIC (Proteus vulgaris, 9416; 18 hours, read-out: M.I.C.): < 0.05 µg/mL
CCN1CCN(C(=O)N[C@@H](C(=O)N[C@@H]2C(=O)N(S(=O)(=O)O)[C@@H]2C)c2ccccc2)C(=O)C1=O (relative stereo) [Example 22, [3S-[3α(R*),4α]]-3-[[[[(4-ethyl-2,3-dioxo-1-piperazinyl)carbonyl]amino]phenylacetyl]-amino]-4-methyl-2-oxo-1-azetidinesulfonic acid, potassium salt]	6.3	6.3	0.8	6.3	6.3	0.4	1.6	> 100	25	0.1	100	3.1	12.5	12.5	0.4	6.3	0.2	6.3	6.3	0.1	MIC (Proteus mirabilis, 3855; read-out: M.I.C.): 0.4 µg/mL; MIC [14]: 12.5 µg/mL; MIC [15]: 3.1 µg/mL; MIC (Shigella sonnei, 8449): 1.6 µg/mL; MIC (Proteus vulgaris, 9416; 18 hours, read-out: M.I.C.): < 0.05 µg/mL
